Data from patent US7906546B2, “Tetrahydrocarbazoles and derivatives” (Hoffmann-La Roche Inc., priority 2004, dated 2011).
pIC50: −log10 of the molar value.

Assays:
[1] = target: T1, human LXRα (Homo sapiens, UniProt Q13133); assay: Radioligand binding assay (scintillation proximity), LXRalpha; details: GST-LXRα-LBD on SPA beads, radioligand displacement
T1 construct: human LXRα (aa 164 to 447); made in house; host or cells: E. coli BL21(pLysS)
T1 sequence (Q13133 164-447): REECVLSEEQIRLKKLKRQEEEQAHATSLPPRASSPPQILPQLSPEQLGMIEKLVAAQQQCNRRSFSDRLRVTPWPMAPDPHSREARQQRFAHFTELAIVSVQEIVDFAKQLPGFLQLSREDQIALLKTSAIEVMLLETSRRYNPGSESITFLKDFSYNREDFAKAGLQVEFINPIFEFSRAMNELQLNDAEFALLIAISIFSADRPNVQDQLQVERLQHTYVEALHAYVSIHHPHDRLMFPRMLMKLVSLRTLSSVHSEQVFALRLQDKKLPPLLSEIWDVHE
Experimental: (§1) Mammalian expression vectors were constructed to express full-length human LXRα and LXRβ. […] To accomplish this, the portions of the sequences encoding the LBDs were amplified from full-length clones by PCR and then subcloned into the plasmid vectors.
(§2) Induction, expression, and purification of GST-LBD fusion proteins were performed in E. coli strain BL21(pLysS) cells by standard methods (Ref: Current Protocols in Molecular Biology, Wiley Press, edited by Ausubel et al).
(§3) LXRα and LXRβ receptor binding were assayed in buffer consisting of 50 mM HEPES, pH 7.4, 10 mM NaCl, 5 mM MgCl2. For each 96-well reaction, 500 ng of GST-LXRα-LBD or 700 ng of GST-LXRβ-LBD fusion proteins were bound to 80 μg or 40 μg SPA beads (Pharmacia Amersham) respectively, in a final volume of 50 μl by shaking. The resulting slurry was incubated for 1 h at RT and centrifuged for 2 min at 1300×g. The supernatant containing unbound protein was removed, and the semi-dry pellet containing the receptor-coated beads was re-suspended in 50 μl of buffer. […] All binding assays were performed in 96-well plates and the amount of bound ligand was measured on a Packard TopCount using OptiPlates (Packard). […]

[2] = target: T2, human LXRβ (Homo sapiens, UniProt P55055); assay: Radioligand binding assay (scintillation proximity), LXRbeta; details: GST-LXRβ-LBD on SPA beads, radioligand displacement
T2 construct: human LXRβ (aa 155 to 460); made in house; host or cells: E. coli BL21(pLysS)
T2 sequence (P55055 155-460): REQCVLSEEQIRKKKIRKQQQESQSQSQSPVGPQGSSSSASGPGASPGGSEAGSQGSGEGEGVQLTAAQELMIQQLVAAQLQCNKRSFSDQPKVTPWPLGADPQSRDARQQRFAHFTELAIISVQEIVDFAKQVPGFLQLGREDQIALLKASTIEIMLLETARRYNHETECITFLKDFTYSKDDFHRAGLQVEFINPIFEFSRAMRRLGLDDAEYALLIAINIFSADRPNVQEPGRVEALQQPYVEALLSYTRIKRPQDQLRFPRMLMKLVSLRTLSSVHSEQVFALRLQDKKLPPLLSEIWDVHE
Experimental: as §1, §2, §3

| pIC50 [1] | pIC50 [2] | SMILES |
| --- | --- | --- |
| 5.80 | 6.57 | COC(=O)[C@@](C)([C@H]1CCc2c([nH]c3ccc(Cl)cc23)C1)S(=O)(=O)c1ccccc1 (racemic) [(RS,SR)-2-benzenesulfonyl-2-(6-chloro-2,3,4,9-tetrahydro-1H-carbazol-2-yl)-propionic acid methyl ester] |
| 7.37 | 8.22 | Cc1nnc([C@@](F)([C@@H]2Cc3[nH]c4ccc(Cl)cc4c3C2)S(=O)(=O)c2cccc(N(C)C)c2)o1 (racemic) [(RS, SR) {3-[(7-chloro-1,2,3,4-tetrahydro-cyclopenta[b]indol-2-yl)-fluoro-(5-methyl-[1,3,4]oxadiazol-2-yl)-methanesulfonyl]-phenyl}-dimethyl-amine] |
